Assay [1] deals with carbapenemase producing K. pneumoniae. In words: MIC by broth micro-dilution (CLSI), carbapenemase producing K. pneumoniae. The conditions noted are these: Klebsiella pneumoniae, ATCCBAA1705, KPC-2 K. pneumoniae ATCC BAA-1705; read-out: MIC. The class given is cell-based, Klebsiella pneumoniae.
Assay [2] relates to carbapenem sensitive Pseudomonas aeruginosa. Kind of assay: MIC by broth micro-dilution (CLSI), carbapenem sensitive P. aeruginosa. The class given is cell-based. The conditions noted are these: Pseudomonas aeruginosa, ATCC27853, Meropenem susceptible P. aeruginosa ATCC27853; read-out: MIC. (In general: Broth dilution looks for growth in wells or tubes with falling amounts of substance.)

Assay [3] has as its system methicillin-sensitive Staphylococcus aureus. Kind of assay: MIC by broth micro-dilution (CLSI), methicillin-sensitive S. aureus. As to conditions: Staphylococcus aureus, ATCC 29213 / MSSA, MSSA S. aureus ATCC29213; read-out: MIC. Format: cell-based.
Assay [4] has as its system carbapenem sensitive Escherichia coli. In words: MIC by broth micro-dilution (CLSI), carbapenem sensitive E. coli. As to conditions: Escherichia coli, ATCC25922, ESBL −ve E. coli ATCC25922; read-out: MIC. Format: cell-based.

≈ marks a conversion by molar mass, not a printed value.

The term MIC denotes the smallest concentration in the dilution series that meets the test's criterion for growth inhibition. With `CCOC(=O)c1nnnn1CC(=O)N[C@H](C)[C@H]1C(=O)N2C(C(=O)O)=C(S[C@@H]3CN[C@H](C(=O)N(C)C)C3)[C@H](C)[C@H]12` [Example 338, (4R,5S,6R)-3-((3S,5S)-5-(dimethylcarbamoyl)pyrrolidin-3-ylthio)-6-((R) - 1-(2-(5-(ethoxycarbonyl) - 1H-tetrazol-1-yl)acetamido)ethyl)-4-methyl-7-oxo-1-azabicyclo[3.2.0]hept-2-ene-2-carboxylic acid], the MIC was 32 µg/mL (≈ 56.7 µM) in assay [1], 128 µg/mL (≈ 227 µM) in assay [2], 8 µg/mL (≈ 14.2 µM) in assay [3] and 2 µg/mL (≈ 3.54 µM) in assay [4].

On to `C[C@@H](NC(=O)Cn1nnnc1C1CC1)[C@H]1C(=O)N2C(C(=O)O)=C(S[C@@H]3CN[C@H](C(=O)N4CC[C@@H](N)C4)C3)[C@H](C)[C@H]12` [Example 372, (4R,5S,6R)-3-((3S,5S)-5-((R)-3-aminopyrrolidine-1-carbonyl)pyrrolidin-3-ylthio)-6-((R)-1-(2-(5-cyclopropyl-1H-tetrazol-1-yl)acetamido)ethyl)-4-methyl-7-oxo-1-azabicyclo[3.2.0]hept-2-ene-2-carboxylic acid], for which the MIC came out at 8 µg/mL (≈ 13.9 µM) in assay [1], 64 µg/mL (≈ 112 µM) in assay [2], 4 µg/mL (≈ 6.97 µM) in assay [3] and 0.5 µg/mL (≈ 0.872 µM) in assay [4].

On to `C[C@@H](NC(=O)Cn1cnnn1)[C@H]1C(=O)N2C(C(=O)O)=C(S[C@@H]3CN[C@H](C(=O)N4C[C@@H](CO)[C@H](N)C4)C3)[C@H](C)[C@H]12` [Example 584, (4R,5S,6R)-6-((R)-1-(2-(1H-tetrazol-1-yl)acetamido)ethyl)-3-((3S,5S)-5-((3S,4R)-3-amino-4-(hydroxymethyl)pyrrolidine-1-carbonyl)pyrrolidin-3-ylthio)-4-methyl-7-oxo-1-azabicyclo[3.2.0]hept-2-ene-2-carboxylic acid], for which the MIC in assay [1] worked out at 1 µg/mL (≈ 1.77 µM); in assay [2], 1 µg/mL (≈ 1.77 µM); in assay [3] it was 2 µg/mL (≈ 3.55 µM); in assay [4], 0.25 µg/mL (≈ 0.444 µM).

In the case of `C[C@@H](NC(=O)CSc1nnnn1C)[C@H]1C(=O)N2C(C(=O)O)=C(S[C@@H]3CN[C@H](C(=O)N(C)C)C3)[C@H](C)[C@H]12` [Example 321, (4R,5S,6R)-3-((3S,5S)-5-(dimethylcirbamoyl)pyrrolidin-3-ylthio)-4-methyl-6-((R) - 1-(2-(1-methyl-1H-tetrazol-5-ylthio)acetamido)ethyl)-7-oxo-1-azabicyclo[3.2.0]hept-2-ene-2-carboxylic acid], the minimum inhibitory concentration (MIC) in assay [1] is 8 µg/mL (≈ 14.9 µM); in assay [2], greater than 128 µg/mL; in assay [3], 2 µg/mL (≈ 3.71 µM); in assay [4], 1 µg/mL (≈ 1.86 µM).

For `C[C@@H](NC(=O)Cn1cnnn1)[C@H]1C(=O)N2C(C(=O)O)=C(S[C@@H]3CN[C@H](C(=O)N4CCN(C(=O)[C@H]5C[C@@H](N)CN5)CC4)C3)[C@H](C)[C@H]12` [Example 434, (4R,5S,6R)-6-((R)-1-(2-(1H-tetrazol-1-yl)acetamido)ethyl)-3-((3S,5S)-5-(4-((2R,4R)-4-aminopyrrolidine-2-carbonyl)piperazine-1-carbonyl)pyrrolidin-3-ylthio)-4-methyl-7-oxo-1-azabicyclo[3.2.0]hept-2-ene-2-carboxylic acid], the MIC in assay [1] came to 2 µg/mL (≈ 3.1 µM); in assay [2] it was 2 µg/mL (≈ 3.1 µM); in assay [3] it was 2 µg/mL (≈ 3.1 µM); in assay [4] it was 0.5 µg/mL (≈ 0.774 µM).

On to `C[C@@H](NC(=O)Cc1nnn(C)n1)[C@H]1C(=O)N2C(C(=O)O)=C(S[C@@H]3CN[C@H](C(=O)N4CC[C@@H](N)C4)C3)[C@H](C)[C@H]12` [Example 302], for which the MIC in assay [1] was determined as 16 µg/mL (≈ 29.2 µM); in assay [2], 128 µg/mL (≈ 234 µM); in assay [3], 2 µg/mL (≈ 3.65 µM); in assay [4], 1 µg/mL (≈ 1.83 µM).

Source of the values: patent US11180504B2 (ORCHID PHARMA LTD., priority 2016, dated 2021).
